Measured values from ChEMBL document CHEMBL1151218, “A new ursane triterpene from Monochaetum vulcanicum that inhibits DNA polymerase beta lyase” (J Nat Prod, 2004).

target: DNA polymerase beta (Homo sapiens, UniProt P06746); test: Inhibition of DNA polymerase beta lyase activity

IC50 [µM]	Compound
> 50	C[C@H]1[C@H](C)CC[C@]2(C(=O)O)CC[C@]3(C)C(=CC[C@@H]4[C@@]5(C)CC[C@H](OC(=O)/C=C/c6ccc(O)cc6)C(C)(C)[C@@H]5CC[C@]43C)[C@H]12
21.5	CC(=O)O[C@H]1[C@H](O)C[C@]2(C)[C@H]3CC=C4[C@@H]5[C@@H](C)[C@H](C)CC[C@]5(C(=O)O)CC[C@@]4(C)[C@]3(C)CC[C@H]2C1(C)C
12.6	C[C@H]1[C@H](C)CC[C@]2(C(=O)O)CC[C@]3(C)C(=CC[C@@H]4[C@@]5(C)C[C@@H](O)[C@H](O)C(C)(C)[C@@H]5CC[C@]43C)[C@H]12 [COROSOLIC ACID]
26.5	CC[C@H](CC[C@@H](C)[C@H]1CC[C@H]2[C@@H]3CC=C4C[C@@H](O[C@@H]5O[C@H](CO)[C@@H](O)[C@H](O)[C@H]5O)CC[C@]4(C)[C@H]3CC[C@]12C)C(C)C [SITOGLUSIDE]
18.6	C[C@H]1[C@H](C)CC[C@]2(C(=O)O)CC[C@]3(C)C(=CC[C@@H]4[C@@]5(C)CC[C@H](O)C(C)(C)[C@@H]5CC[C@]43C)[C@H]12 [URSOLIC ACID]
